Measurements taken from PubChem BioAssay AID2202554 (NIEHS Division of Translational Toxicology (DTT)).
Inconclusive results are not listed. Activity calls are given as the source filed them. How the calls were made is not given here.

The compounds below were run on S. typhimurium/E. coli reverse mutation, colony counts (assay: Bacterial reverse mutation test (aka Ames test) summary data).
In short: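 S. typhimurium his⁻ strains (TA97–TA1538) and E. coli WP2 uvrA pKM101 trp⁻, dosed over a range with or without rat, hamster or mouse liver S9. Preincubated 20 min at 37° C (or plate incorporation), plated in agar, incubated usually two days. Revertant colonies counted against negative controls.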
Nc1ccccc1-c1ccccc1 was tested, and the outcome was “active; positive”.
In the case of Nc1ccc(Cc2ccc(N)c(Cc3ccc(N)cc3)c2)cc1, the outcome was “active; positive”.
With O=[N+]([O-])c1ccc2c3c(cccc13)CC2 the outcome was “active; positive”.
With ClCC1CO1 (stereo not drawn) the outcome was “active; positive”.
For ClC(Cl)(Cl)C(Cl)(Cl)Cl, the outcome was “inactive; negative”.
CCOc1ccc(NC(C)=O)cc1[N+](=O)[O-] was tested, and the outcome was “active; positive”.
For Nc1ccc(S(=O)(=O)Nc2nccs2)cc1, the outcome was “inactive; negative”.
With Clc1nc(Cl)nc(Nc2ccccc2Cl)n1 the outcome was “inactive; negative”.
With CCOP(=S)(OCC)Oc1cc(C)nc(C(C)C)n1 the outcome was “inactive; negative”.
CC(=O)CC(N)=O was tested, and the outcome was “active; positive”.
In the case of CCCCC(CC)COC(=O)c1ccccc1C(=O)OCC(CC)CCCC (stereo not drawn), the outcome was “inactive; negative”.
With CCCC(=O)O the outcome was “inactive; negative”.
In the case of CN1C(CSCC(F)(F)F)Nc2cc(Cl)c(S(N)(=O)=O)cc2S1(=O)=O (stereo not drawn), the outcome was “inactive; negative”.
Cc1cc(Cl)ccc1O was tested, and the outcome was “inactive; negative”.
For CNC(=S)N(C)C, the outcome was “inactive; negative”.
For Nc1ccc([N+](=O)[O-])cc1[N+](=O)[O-], the outcome was “active; positive”.
With CS(=O)(=O)c1ccc(O)c(N)c1 the outcome was “inactive; negative”.
With O=[N+]([O-])c1ccc(Nc2ccccc2O)c([N+](=O)[O-])c1 the outcome was “active; positive”.
C=CC(=O)OCC(Br)CBr (stereo not drawn) was tested, and the outcome was “active; positive”.
In the case of OCCC(F)(F)C(F)(F)C(F)(F)C(F)(F)C(F)(F)C(F)(F)C(F)(F)C(F)(F)F, the outcome was “inactive; negative”.
For O=S1(=O)CC=CC1, the outcome was “inactive; negative”.
In the case of Oc1cc(Cl)c(Cl)cc1Cl, the outcome was “inactive; negative”.
For CC/C=C\C/C=C\C/C=C\CCCCCCCC(=O)OCC, the outcome was “active; weakly positive”.
In the case of NC(N)=S, the outcome was “inactive; negative”.
In the case of Cc1ccc2ccccc2c1, the outcome was “inactive; negative”.
With Oc1c(I)cc(Cl)c2cccnc12 the outcome was “inactive; negative”.
Cc1cc2nc(N)sc2cc1C was tested, and the outcome was “active; positive”.
With CCOCCOC(=O)C=Cc1ccc(OC)cc1 the outcome was “inactive; negative”.
For CC(=O)Nc1ccc(C(=O)CCl)cc1, the outcome was “active; positive”.
For CC(=O)NBr, the outcome was “inactive; negative”.
With CC(C)(c1ccc(OCC2CO2)cc1)c1ccc(OCC2CO2)cc1 (stereo not drawn) the outcome was “active; positive”.
In the case of Nc1cc(S(=O)(=O)O)ccc1O, the outcome was “inactive; negative”.
In the case of O=[N+]([O-])c1ccccc1CCO, the outcome was “active; positive”.
For Nc1c(Oc2ccccc2)cc(O)c2c1C(=O)c1ccccc1C2=O, the outcome was “active; positive”.
CCC(O)CN (stereo not drawn) was tested, and the outcome was “inactive; negative”.
For CC(C)[N+](=O)[O-], the outcome was “active; positive”.
With Nc1cc(Cl)cc(S(=O)(=O)O)c1O the outcome was “inactive; negative”.
With CC(C)=CCC/C(C)=C/CC/C(C)=C/CC/C=C(\C)CC/C=C(\C)CCC=C(C)C the outcome was “inactive; negative”.
CN(C)N=O was tested, and the outcome was “active; positive”.
CCCCCCCCCCCCCC(=O)O was tested, and the outcome was “inactive; negative”.
CC(CO)[N+](=O)[O-] (stereo not drawn) was tested, and the outcome was “inactive; negative”.
With CC(=O)C(N=Nc1ccc(-c2ccc(N=NC(C(C)=O)C(=O)Nc3ccccc3)c(Cl)c2)cc1Cl)C(=O)Nc1ccccc1 (stereo not drawn) the outcome was “inactive; negative”.
O=[N+]([O-])c1cc(Cl)c(Cl)cc1Cl was tested, and the outcome was “active; positive”.
In the case of COc1ccc(C(=O)Nc2ccccc2)cc1[N+](=O)[O-], the outcome was “active; positive”.
For CC(=O)C(C)=NO, the outcome was “inactive; negative”.
O=[N+]([O-])c1ccc(NCCO)c(OCCO)c1 was tested, and the outcome was “active; positive”.
CC(C)(c1ccc(O)cc1)c1ccc(O)cc1 was tested, and the outcome was “inactive; negative”.
In the case of CON, the outcome was “inactive; negative”.
For CC=NO, the outcome was “active; positive”.
In the case of CN(C)C(=S)[S-].CN(C)C(=S)[S-].[Pb+2], the outcome was “active; positive”.
In the case of CN(C)CCCN1c2ccccc2Sc2ccc(Cl)cc21, the outcome was “inactive; negative”.
For CCC(CO)(CO)[N+](=O)[O-], the outcome was “inactive; negative”.
With O=[N+]([O-])c1ccc(F)c([N+](=O)[O-])c1 the outcome was “active; positive”.
In the case of CCCCC(CC)CNCC(CC)CCCC (stereo not drawn), the outcome was “inactive; negative”.
In the case of CCNC(=O)CC(C)=O, the outcome was “inactive; negative”.
For COc1cc(Cl)c(OC)cc1Cl, the outcome was “active; positive”.
With C#CCO the outcome was “active; positive”.
For CC(O)COC(C)(C)C (stereo not drawn), the outcome was “active; positive”.
O=C(O)c1cc(O)c2c(c1)C(=O)c1cccc(O)c1C2=O was tested, and the outcome was “active; positive”.
FC(F)(F)c1ccc(Cl)cc1 was tested, and the outcome was “inactive; negative”.
Nc1ccc(Oc2ccc(N)cc2)cc1 was tested, and the outcome was “active; positive”.
N[C@@H](Cc1c[nH]c2ccc(O)cc12)C(=O)O was tested, and the outcome was “inactive; negative”.
With c1ccc(Nc2ccccc2)cc1 the outcome was “inactive; negative”.
In the case of NC(=O)/C(=C\c1ccc([N+](=O)[O-])o1)c1ccco1, the outcome was “active; positive”.
In the case of C=CC(=C)CCC=C(C)C, the outcome was “inactive; negative”.
With O=S1OCC2C(CO1)C1(Cl)C(Cl)=C(Cl)C2(Cl)C1(Cl)Cl (stereo not drawn) the outcome was “inactive; negative”.
CCC(Cl)[N+](=O)[O-] (stereo not drawn) was tested, and the outcome was “active; positive”.
For O=NN1CCCCC1, the outcome was “active; positive”.
O=Cc1ccc(Cl)c(Cl)c1 was tested, and the outcome was “inactive; negative”.
In the case of CC1CCC(C(C)CS)CC1S (stereo not drawn), the outcome was “inactive; negative”.
For CCC(C)(C)OC, the outcome was “inactive; negative”.
For O=P(OCCCl)(OCCCl)OCCCl, the outcome was “inactive; negative”.
In the case of Cc1cccc(C)c1[N+](=O)[O-], the outcome was “active; weakly positive”.
With S=C1NC=NC2N=CNC12 (stereo not drawn) the outcome was “active; positive”.
For O=c1oc2c(O)c(O)cc3c(=O)oc4c(O)c(O)cc1c4c23, the outcome was “inactive; negative”.
In the case of COC(=O)c1ccc(C(=O)OC)cc1, the outcome was “inactive; negative”.
For COc1ccc(C(c2ccc(OC)cc2)C(Cl)(Cl)Cl)cc1, the outcome was “inactive; negative”.
With [Co] the outcome was “active; positive”.
In the case of Nc1cc(Cl)cc(Cl)c1, the outcome was “inactive; negative”.
CC(C)=CCCC(C)=CC=O was tested, and the outcome was “inactive; negative”.
For O=C(O)c1ccccc1C(=O)O, the outcome was “inactive; negative”.
In the case of c1cc2ccc3cccc4ccc(c1)c2c34, the outcome was “active; positive”.
Clc1ccc2c(c1)Oc1ccc(Cl)cc1O2 was tested, and the outcome was “inactive; negative”.
For CCCCCO, the outcome was “inactive; negative”.
With CCCCC=O the outcome was “inactive; negative”.
For NC(=O)c1ccccc1[N+](=O)[O-], the outcome was “active; positive”.
With Cc1cccc(N)c1 the outcome was “inactive; negative”.
With CC(C)(Cl)[N+](=O)[O-] the outcome was “active; weakly positive”.
With CN1CSC(=S)N(C)C1 the outcome was “active; weakly positive”.
In the case of Cc1ccc([N+](=O)[O-])c(C)c1, the outcome was “active; positive”.
In the case of C=C(F)F, the outcome was “active; positive”.
In the case of Nc1cc(Cl)cc(C(=O)O)c1Cl, the outcome was “active; positive”.
In the case of C1CN1c1nc(N2CC2)nc(N2CC2)n1, the outcome was “active; positive”.
In the case of Cc1ccc(C)c([N+](=O)[O-])c1, the outcome was “active; positive”.
With CC(Cl)CN(C)C (stereo not drawn) the outcome was “active; positive”.
With CC(=O)Nc1cccc(C)c1 the outcome was “inactive; negative”.
In the case of O=[N+]([O-])c1c(O)c(Cl)cc(Cl)c1Cl, the outcome was “inactive; negative”.
For ClC(Cl)Br, the outcome was “inactive; negative”.
For C=CCCC, the outcome was “inactive; negative”.
BrCCBr was tested, and the outcome was “active; positive”.
In the case of Nc1ccc(N)cc1, the outcome was “active; positive”.
In the case of FC(F)(F)c1cccc(Cl)c1, the outcome was “inactive; negative”.
CCN(CC)C(=O)C(Cl)=C(C)OP(=O)(OC)OC was tested, and the outcome was “active; positive”.
With COc1c2occc2cc2ccc(=O)oc12 the outcome was “active; positive”.
CC(N)C(=O)O (stereo not drawn) was tested, and the outcome was “inactive; negative”.
With C=CC(=O)OCCCC the outcome was “inactive; negative”.
With CCCN(CCC)CCC the outcome was “inactive; negative”.
Clc1ccccc1Cl was tested, and the outcome was “inactive; negative”.
ClC(Cl)(Cl)c1ccccc1 was tested, and the outcome was “active; positive”.
With Cc1cccc(C)c1O the outcome was “inactive; negative”.
Cc1ccccc1N was tested, and the outcome was “active; positive”.
In the case of Nc1cccc(N)c1, the outcome was “active; positive”.
Cc1cc(=O)[nH]c(=S)[nH]1 was tested, and the outcome was “inactive; negative”.
With CCCCCCCCCCCCCOC(=O)c1ccccc1C(=O)OCCCCCCCCCCCCC the outcome was “inactive; negative”.
In the case of Cc1nc2ccc(Cl)cc2[nH]1, the outcome was “active; positive”.
For Nc1c(Br)cc([N+](=O)[O-])cc1[N+](=O)[O-], the outcome was “active; positive”.
In the case of NC(N)=NC(N)=NCCc1ccccc1, the outcome was “inactive; negative”.
For OC1C2(Cl)C3(Cl)C4(Cl)C(Cl)(Cl)C5(Cl)C3(Cl)C1(Cl)C5(Cl)C24Cl (stereo not drawn), the outcome was “inactive; negative”.
For CC(=O)c1ccccc1[N+](=O)[O-], the outcome was “inactive; negative”.
Nc1ccc(NCCO)c([N+](=O)[O-])c1 was tested, and the outcome was “active; positive”.
N#CC(Br)Br was tested, and the outcome was “active; positive”.
With CS(=O)(=O)c1ccc(C(=O)C2C(=O)CCCC2=O)c([N+](=O)[O-])c1 the outcome was “active; positive”.
With CCOCCOC(C)=O the outcome was “active; positive”.
For COc1ccc2c(c1OC)C(=O)O[C@@H]2[C@H]1c2cc3c(cc2CCN1C)OCO3, the outcome was “inactive; negative”.
For CCCNC(C)C(=O)Nc1ccccc1C (stereo not drawn), the outcome was “inactive; negative”.
In the case of O=C(O)CC(O)(CC(=O)OO)C(=O)O (stereo not drawn), the outcome was “inactive; negative”.
With O=C1CCCCCN1 the outcome was “inactive; negative”.
Nc1ccc(F)cc1F was tested, and the outcome was “active; positive”.
With c1ccc2c(c1)CCNC2 the outcome was “inactive; negative”.
In the case of O=C1OC2(c3ccccc31)c1cc(Br)c(O)c(Br)c1Oc1c2cc(Br)c(O)c1Br, the outcome was “active; positive”.
For OCCN(CCO)CCO, the outcome was “inactive; negative”.
For O=C(O)CCC(=O)OC[C@@H](NC(=O)C(Cl)Cl)[C@H](O)c1ccc([N+](=O)[O-])cc1, the outcome was “inactive; negative”.
For C=CCc1cc(OC)c2c(c1)OCO2, the outcome was “inactive; negative”.
